Source: EP1118615A1, “NOVEL SALTS OF PYRIDOPYRAZINE COMPOUND AND CRYSTALS THEREOF” (FUJISAWA PHARMACEUTICAL CO., LTD., priority 1998, dated 2000)

Experiments:
[1] = physchem; settings: thermodynamic from solid
[2] = Stability in solid state; assay type: physicochemical; design: Water content: unit not given here
Excerpt: The crystallinity of hydrochloride was decreased when it was mixed with ethanol.
(§1) In the study on polymorphism of compound (I), six kinds of polymorphs (A01, A09, A16, A20, A30 and A43 crystals) were found. For each of those polymorphs, hygroscopicity, stability in solid state, solubility and changes in crystallinity on compounding with various solvents were studied. However, the A30 crystal was not studied since it contains ethanol.
(2) Stability in solid state

[3] = test system: IL-4; assay: (A3) Anti-CD3/CD28 antibody-stimulated cytokine production inhibitory activity in PBMC, ELISA: IL-4; assay type: cell-based; settings: Homo sapiens, anti-CD3 and anti-CD28 antibodies, 24-hr culture supernatant
Method: (§2) (A3) Anti-CD3/CD28 antibody-stimulated TNF α production inhibitory activity in human peripheral blood monocytes (PBMC)
(§3) [Method] Monocytes isolated from healthy adult male volunteers were cultured and stimulated with anti-CD3 and anti-CD28 antibodies and the amounts of TNF, INF, 1L-2, IL-4 and IL-10 in the 24-hr culture supernatant were determined by ELISA.

[4] = test system: DGalN-induced rat hepatitis model; assay: (B2) DGalN-induced rat hepatitis model; assay type: in vivo, Wistar rats; settings: oral, 24 hours after DGalN
Method: (B2) DGalN-induced rat hepatitis model
[Method] Male Wistar rats aged 12 weeks were deprived of food for 24 hours and dosed orally with the drug or the solvent vehicle in predetermined doses. Immediately thereafter, saline was administered intraperitoneally to the NORMAL group and D-galactosamine hydrochloride (DGalN), 400 mg/kg, was administered similarly to the CONTROL and DRUG groups. At 24 hours after administration of DGalN, the blood was drawn and the liver isolated. Using the blood, the liver-derived en zymes (ALT, AST) in plasma were assayed. The liver was fixed in formalin and pathological specimens were prepared. Histopathological findings (inflammatory cell infiltration and liver cell necrosis) were evaluated.

[5] = test system: IL-10; assay: (A3) Anti-CD3/CD28 antibody-stimulated cytokine production inhibitory activity in PBMC, ELISA: IL-10; assay type: cell-based; settings: Homo sapiens, anti-CD3 and anti-CD28 antibodies, 24-hr culture supernatant
Method: as §2, §3

[6] = test system: mouse model of NC/NGa dermatitis; assay: (B7) Atopy, Method 2: spontaneous atopic dermatitis model; assay type: in vivo; settings: oral once daily for 17 consecutive days
Method: [Method 2] Spontaneous atopic dermatitis mode:
In the mouse model of NC/NGa dermatitis, the drug was administered orally once daily for 17 consecutive days.

[7] = target: T1, human PDE4-B1 isoform (Homo sapiens, UniProt Q07343); assay: (A1) PDE-IV inhibitory activity, crude enzyme from CHO cells expressing the cDNA; assay type: biochemical
T1 construct: made in house; host or cells: CHO cells
Method: (A1) PDE-IV inhibitory activity [Method] A crude enzyme was prepared from the cells (CHO cells) to which the cDNA for human PDE4-B1 isoform had been introduced for expression of the protein and the PDE4 inhibitory activity of the compound (I) of this invention was determined.

[8] = test system: TNF α; assay: (A3) Anti-CD3/CD28 antibody-stimulated cytokine production inhibitory activity in PBMC, ELISA: TNF α; assay type: cell-based; settings: Homo sapiens, anti-CD3 and anti-CD28 antibodies, 24-hr culture supernatant
Method: as §2, §3

[9] = Hygroscopicity; assay type: physicochemical
Excerpt: as §1

[10] = test system: Guinea-pig model of delayed asthma; assay: (B6) Guinea-pig model of delayed asthma; assay type: in vivo, Hartley guinea pigs; settings: oral 1 hour before exposure to the antigen; 4~8 hours after exposure
Method: (B6) Guinea-pig model of delayed asthma
[Method] Male Hartley guinea pigs were sensitized intraperitoneally with ovalbumin/Freund's complete adjuvant. On day 23 after immunization, the animals were caused to inhale a mist of ovalbumin solution from a sonic nebulizer for 3 minutes to elicit an asthmatic response. The drug was administered orally 1 hour before exposure to the antigen. The special airway resistance (sRaw) after exposure to the antigen was measured and the case in which the sRaw value had increased two-fold or more from the pre-exposure baseline in 4~8 hours was regarded as a case of delayed asthma.

[11] = test system: LEC rat spontaneous hepatitis model; assay: (B5) LEC rat spontaneous hepatitis model; assay type: in vivo, Long Evans Cinnamon (LEC) rats; settings: oral once daily for 23 consecutive weeks
Method: (B5) LEC rat spontaneous hepatitis model
Long Evans Cinnamon (LEC) rats are known to spontaneously develop acute hepatitis with jaundice as a cardinal sign and 50~70% of them experience a fulminating stage and die. It is also known that almost all surviving animals run a clinical course of acute hepatitis-chronic hepatitis-biliary fibrosis (cirrhosis)-hepatocarcinoma.
[Method] To 9-week-old male LEC rats, either the drug or the solvent vehicle was administered orally in predetermined doses once daily for 23 consecutive weeks. On the day following the last dosing day, the blood was drawn and the liver isolated. Using the blood, the liver-derived enzymes (ALT, AST) in plasma were assayed. The liver was fixed in formalin and pathological specimens were prepared. Histopathological findings (inflammatory cell infiltration, biliary hyperplasia and liver cell necrosis) were evaluated.

[12] = test system: Arachidonic acid-induced ear edema model; assay: (B7) Atopy, Method 1: arachidonic acid-induced ear edema model; assay type: in vivo, Balb/c mice; settings: oral 30 minutes before arachidonic acid; auricle thickness after 1 hour
Method: [Method 1] Arachidonic acid-induced ear edema model:
To the left auricle of Balb/c mice, 2 mg/ear of arachidonic acid was applied to induce a skin inflammation. After 1 hour, the thickness of the auricle was measured with a peacock dial thickness gage and used as an indicator of skin inflammation. The drug was administered orally 30 minutes before application of arachidonic acid.

[13] = test system: DGalN/LPS-induced rat hepatitis model; assay: (B1) DGalN/LPS-induced rat hepatitis model; assay type: in vivo, Wistar rats; settings: oral, 24 hr after DGalN/LPS
Method: (B1) DGalN/LPS-induced rat hepatitis model
[Method] Male Wistar rats aged 12 weeks were deprived of food for 24 hours and dosed orally with the drug or the solvent vehicle in predetermined doses. Immediately thereafter, saline was administered from the tail vein to the NORMAL group and D-galactosamine hydrochloride (DGalN) (300 mg/kg)/LPS (0.32 µg/kg) was administered similarly to the CONTROL and DRUG groups. At 24 hr after administration of DGaIN/LAS, the blood was drawn and the liver isolated. Using the blood, liver-derived enzymes (ALT and AST) in plasma were assayed. The liver was fixed in formalin and phathological specimens were prepared. Histopathological findings (inflammatory cell infiltration and liver cell necrosis) were evaluated.

[14] = (A3) Anti-CD3/CD28 antibody-stimulated cytokine production inhibitory activity in PBMC, ELISA: TNF γ; assay type: cell-based; settings: Homo sapiens, anti-CD3 and anti-CD28 antibodies, 24-hr culture supernatant
Method: as §2, §3

T1 sequence (Q07343 whole entry, canonical isoform): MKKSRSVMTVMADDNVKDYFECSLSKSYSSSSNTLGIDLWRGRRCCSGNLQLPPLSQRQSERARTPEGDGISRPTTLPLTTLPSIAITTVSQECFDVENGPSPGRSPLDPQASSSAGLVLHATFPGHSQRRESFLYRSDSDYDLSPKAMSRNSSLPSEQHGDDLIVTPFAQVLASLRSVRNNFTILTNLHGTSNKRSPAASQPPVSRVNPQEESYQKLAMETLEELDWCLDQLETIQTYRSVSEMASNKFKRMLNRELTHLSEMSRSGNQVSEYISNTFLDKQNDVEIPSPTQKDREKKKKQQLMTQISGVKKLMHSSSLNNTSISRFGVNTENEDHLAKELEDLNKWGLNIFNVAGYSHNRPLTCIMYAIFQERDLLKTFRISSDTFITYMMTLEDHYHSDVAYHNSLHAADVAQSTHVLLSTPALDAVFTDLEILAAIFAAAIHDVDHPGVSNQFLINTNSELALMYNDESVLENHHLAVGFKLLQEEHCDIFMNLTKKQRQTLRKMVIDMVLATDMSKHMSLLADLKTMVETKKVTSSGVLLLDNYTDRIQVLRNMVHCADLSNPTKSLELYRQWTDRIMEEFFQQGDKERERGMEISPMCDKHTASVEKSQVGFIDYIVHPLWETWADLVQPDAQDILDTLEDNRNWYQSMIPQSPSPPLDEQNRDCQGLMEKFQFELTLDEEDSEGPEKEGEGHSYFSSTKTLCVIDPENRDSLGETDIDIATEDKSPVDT

## CS(=O)(=O)O.O.O.O=C(Nc1cccc(-n2c(=O)c(Cc3cccnc3)nc3cccnc32)c1)c1cc(Cl)cc(Cl)c1 [Example 2, 4-(3-(3,5-dichlorobenzoylamino)phenyl)-2-(3-pyridyl)methyl-3-oxo-3,4-dihydropyrido[2,3-b]pyrazine methanesulfonate dihydrate]
[1]; saline or isotonic
  solubility at 30 min: 64.3 µg/mL
[1]; water
  solubility at 30 min: 887 µg/mL
[2]; 70°C, 75% RH, 9 days
  % Residue: 101.6%
  Appearance: Pale yellowish white crystalline powder
  Crystal form: Unchanged
  Water content: 5.09
[2]; 70°C, 9 days
  % Residue: 100.3%
  Appearance: Pale yellowish white crystalline powder
  Crystal form: Unchanged
  Water content: 1.68
[2]; Initial
  % Residue: 100.0%
  Appearance: Pale yellowish white white crystalline powder
  Water content: 1.75
[2]; heat and humidity, summary of Table 3
  change in crystal form: no change
[2]; summary of Table 3
  chemical stability against heat and humidity: chemically stable
[3]
  IC50: 155 nM
[4]
  elevation of blood ALT: significantly inhibited
  elevation of blood AST: significantly inhibited
[4]; histopathology
  inflammatory cell infiltration: inhibited
  liver cell necrosis: inhibited
[5]
  IC50: 59.7 nM
[6]
  disease state-ameliorating effect: significant disease state-ameliorating effect
[7]
  IC50: 26 nM
[8]
  IC50: 44.5 nM
[9]
  Hygroscopicity: less hygroscopic
[10]
  delayed asthmatic response: inhibited
[11]
  elevation of blood ALT: significantly inhibited
  elevation of blood AST: significantly inhibited
[11]; histopathology
  inflammatory cell infiltration: inhibited
  liver cell necrosis: inhibited
[12]
  ear edema: significantly inhibited
[13]
  elevation of blood ALT: significantly inhibited
  elevation of blood AST: significantly inhibited
[13]; histopathology
  inflammatory cell infiltration: inhibited
  liver cell necrosis: inhibited
[14]
  IC50: 57.3 nM
